This is an account of results in patent US5498755A, “Disubstituted aryl and heteroaryl imines having retinoid-like biological activity” (priority 1994, dated 1996).

The first test has as its system ornithine decarboxylase (ODC). Put plainly: ODC assay: inhibition of TPA induction of ornithine decarboxylase. It is filed as biochemical. The conditions noted are these: concentration of the test compound which causes 80% inhibition in the ODC assay; TPA-induced ODC. From the text: The retinoic acid-like activity of these compounds is confirmed through the classic measure of retinoic acid activity involving the effects of retinoic acid on ornithine decarboxylase. The original work on the correlation between retinoic acid and decrease in cell proliferation was done by Verma & Boutwell, Cancer Research, 1977, 37, 2196-2201. That reference discloses that ornithine decarboxylase (ODC) activity increased precedent to polyamine biosynthesis. It has been established elsewhere that increases in polyamine synthesis can be correlated or associated with cellular proliferation. Thus, if ODC activity could be inhibited, cell hyperproliferation could be modulated. Although all cases for ODC activity increases are unknown, it is known that 12-O-tetradecanoylphorbol-13-acetate (TPA) induces ODC activity. […] Activity of exemplary compounds of the present invention in the above-described ODC assay is disclosed in Table 2 which provides the IC80 concentration for the respective exemplary compound. ("IC80 " is that concentration of the test compound which causes 80% inhibition in the ODC assay)
`CCOC(=O)c1ccc(C=Nc2cc3c(cc2C)C(C)(C)CCC3(C)C)cc1` [Compound 6, N-(5,6,7,8-Tetrahydro-3,5,5,8,8-pentamethyl)-2-naphthalenyl 4-ethoxycarbonyl benzaldimine] yielded an IC80 conc of 293 nmols.
For `CCOC(=O)c1ccc(N=Cc2ccc3c(c2)C(C)(C)CCC3(C)C)cc1` [Compound 9, N-(4'-Ethoxycarbonyl)phenyl 5,6,7,8-tetrahydro-5,5,8,8-tetramethyl,naphthalene-2-carboxaldehyde imine], the IC80 conc is listed as 9.6 nmols.
In turn, `COC(=O)c1ccc(C=Nc2ccc3c(c2)C(C)(C)CCC3(C)C)cc1` [Compound 1] yielded an IC80 conc of 14.5 nmols.
On the same count and under the same terms, the result for `CCOC(=O)c1ccc(N=Cc2cc3c(cc2C)C(C)(C)CCC3(C)C)cc1` [Compound 11, N-(4'-Ethoxycarbonyl) phenyl-2-(5,6,7,8-tetrahydro-3,5,5,8,8-pentamethyl) naphthalene-2-carboxaldehyde imine] reads 3.5 nmols.
`CCOC(=O)c1ccc(C(C)=Nc2ccc3c(c2)C(C)(C)CCC3(C)C)cc1` [Compound 5, N-(5,6,7,8-Tetrahydro-5,5,8,8-tetramethyl)-2-naphthalenyl 4-ethoxycarbonyl acetophenone imine]: the IC80 conc is 5.5 nmols.
On the same count and under the same terms, in the case of `CCOC(=O)c1ccc(N=Cc2ccc3c(c2)C(C)(C)CC(C)(C)O3)cc1` [Compound 10, N-(4'-Ethoxycarbonyl) phenyl 2,2,4,4-tetramethyl-chroman-6-carboxaldehyde imine] it was 44.0 nmols; in that of `CCOC(=O)c1ccc(C=Nc2ccc3c(c2)C(C)(C)CCC3(C)C)cc1` [Compound 4, N-(5,6,7,8-Tetrahydro-5,5,8,8-tetramethyl)-2-naphthalenyl 4-ethoxycarbonyl benzaldimine], 2.5 nmols.
Compound `CCOC(=O)c1ccc(C=Nc2ccc3c(c2)C(C)(C)CCC3(C)C)nc1` [Compound 7, Ethyl 6-(N-5,6,7,8-tetrahydro-5,5,8,8-tetramethyl-2-naphthalenyl) 3-ethoxycarbonyl-pyridine-6-carboxaldehyde imine] gave an IC80 conc above 30 nmols.

Another test deals with ornithine decarboxylase (ODC).
Assay: not given
The note with it: literature statement in words; 12-O-tetradecanoylphorbol-13-acetate (TPA) as inducer; cited from earlier work.
As to `CC1=C(/C=C/C(C)=C/C=C/C(C)=C/C(=O)O)C(C)(C)CCC1` [Retinoic acid], the “inhibition of TPA induction of ODC activity” value is “inhibits this induction of ODC activity by TPA”.
